Measurements as given in patent publication US11999736B1, “Pyrazino[2′,1′:2,3]imidazo[4,5-b][1,7]naphthyridines compounds as CK2 inhibitors” (KING FAISAL UNIVERSITY, priority 2023, dated 2024).

How the values were obtained:
[1] = test system: HCT116 (colon) cancer cell line; experiment: In vitro cytotoxic activity MTT assay, HCT116; type: cell-based; settings: Homo sapiens, HCT-116; HCT116 (colon) cells, exposed for 96 hours; read-out: IC50, concentration of compound eliciting a 50% inhibition of cell proliferation
Experimental: (§1) Compounds 1-16 were screened for their in vitro cytotoxic activity utilizing a 3-(4,5-dimethyl-thiazol-2-yl)-2,5-diphenyltetrazolium bromide (MTT) assay against selected cancer human cell lines consisting of PC3 (prostate), HCT116 (colon), A375 (melanoma), H1299 (lung), MIAPaCa-2 (pancreas), HL60 (leukemia), MCF7 (breast), MDA-MB-231 (breast) (T. Mosmann, J. Immunol. Meth., 1983, 65, 55-63). The cells were cultured at 37° C. in RMPI1640 medium supplemented with 10% fetal bovine serum, 50 IU/mL penicillin, and 50 μg/mL streptomycin in a 5% CO2 incubator. All cells were sub-cultured 3 times/week by trypsinisation. Viable cells were seeded and allowed to adhere for 12 h before a test drug was added in 96-well plates at an initial density of 1.0×10^5 cells/mL. Tumor cell lines were separately exposed to various concentrations of the tested compounds followed by incubation at a temperature of 37° C. during 96 hours inside a medium of fresh RMPI 1640. Cells were subsequently incubated at 37° C. using MTT at 0.5 mg/mL during 4 hours. After removal of supernatant, formazan crystals were dissolved in isopropanol and the optical density was measured at 570 nm. CX-4945 was used as a positive control.

[2] = test system: MCF7 (breast) cancer cell line; experiment: In vitro cytotoxic activity MTT assay, MCF7; type: cell-based; settings: Homo sapiens; MCF7 (breast) cells, exposed for 96 hours; read-out: IC50, concentration of compound eliciting a 50% inhibition of cell proliferation
Experimental: as §1

[3] = test system: HL60 (leukemia) cancer cell line; experiment: In vitro cytotoxic activity MTT assay, HL60; type: cell-based; settings: Homo sapiens, HL-60; HL60 (leukemia) cells, exposed for 96 hours; read-out: IC50, concentration of compound eliciting a 50% inhibition of cell proliferation
Experimental: as §1

[4] = test system: MIAPaCa-2 (pancreas) cancer cell line; experiment: In vitro cytotoxic activity MTT assay, MIAPaCa-2; type: cell-based; settings: Homo sapiens, MIA PaCa-2; MIAPaCa-2 (pancreas) cells, exposed for 96 hours; read-out: IC50, concentration of compound eliciting a 50% inhibition of cell proliferation
Experimental: as §1

[5] = molecular target: T1, recombinant human CK2 (holoenzyme) (Homo sapiens, UniProt P68400); experiment: CK2 Kinase Assay (radiometric, [γ-33P] ATP); type: biochemical; settings: final ATP concentration 15 μM, 10 min at 30° C., eight concentrations; read-out: protein kinase CK2 inhibition IC50
T1 construct: purchased Millipore
Experimental: CK2 Kinase Assay was conducted using the protocol as described in Pierre F. et al; J. Med. Chem. 2011, 54, 635-654. The tested compounds in aqueous solution were added at a volume of 10 μL to a reaction mixture comprising 10 μL of assay dilution buffer (ADB; 20 mM MOPS, pH 7.2, 25 mM P-glycerol phosphate, 5 mM EGTA, 1 mM sodium orthovanadate, and 1 mM dithiothreitol), 10 μL of substrate peptide (RRRDDDSDDD, dissolved in ADB at a concentration of 1 mM), 10 μL of recombinant human CK2 (RROP-holoenzyme, 25 ng dissolved in ADB; Millipore). Reactions were initiated by the addition of 10 μL of ATP solution (90% 75 mMMgCl2, 75 μM ATP (final ATP concentration:15 μM) dissolved in ADB; 10% [γ-33P] ATP (stock 1mCi/100 μL; 3000 Ci/mmol (Perkin-Elmer) and maintained for 10 min at 30° C. The reactions were quenched with 100 μL of 0.75% phosphoric acid and then transferred to and filtered through a phosphor cellulose filter plate (Millipore). After washing each well five times with 0.75% phosphoric acid, the plate was dried under vacuum for 5 min and, following the addition of 15 μL of scintillation fluid to each well, the residual radioactivity was measured using a Wallac luminescence counter. The IC50 values were derived from eight concentrations of test inhibitors.

[6] = test system: A375 (melanoma) cancer cell line; experiment: In vitro cytotoxic activity MTT assay, A375; type: cell-based; settings: Homo sapiens, A-375; A375 (melanoma) cells, exposed for 96 hours; read-out: IC50, concentration of compound eliciting a 50% inhibition of cell proliferation
Experimental: as §1

[7] = test system: MDA-MB-231 (breast) cancer cell line; experiment: In vitro cytotoxic activity MTT assay, MDA-MB-231; type: cell-based; settings: Homo sapiens; MDA-MB-231 (breast) cells, exposed for 96 hours; read-out: IC50, concentration of compound eliciting a 50% inhibition of cell proliferation
Experimental: as §1

[8] = test system: PC3 (prostate) cancer cell line; experiment: In vitro cytotoxic activity MTT assay, PC3; type: cell-based; settings: Homo sapiens, PC3 (prostate) cells, exposed for 96 hours, read-out: IC50, concentration of compound eliciting a 50% inhibition of cell proliferation
Experimental: as §1

[9] = test system: H1299 (lung) cancer cell line; experiment: In vitro cytotoxic activity MTT assay, H1299; type: cell-based; settings: Homo sapiens, NCI-H1299; H1299 (lung) cells, exposed for 96 hours; read-out: IC50, concentration of compound eliciting a 50% inhibition of cell proliferation
Experimental: as §1

T1 sequence (P68400 whole entry): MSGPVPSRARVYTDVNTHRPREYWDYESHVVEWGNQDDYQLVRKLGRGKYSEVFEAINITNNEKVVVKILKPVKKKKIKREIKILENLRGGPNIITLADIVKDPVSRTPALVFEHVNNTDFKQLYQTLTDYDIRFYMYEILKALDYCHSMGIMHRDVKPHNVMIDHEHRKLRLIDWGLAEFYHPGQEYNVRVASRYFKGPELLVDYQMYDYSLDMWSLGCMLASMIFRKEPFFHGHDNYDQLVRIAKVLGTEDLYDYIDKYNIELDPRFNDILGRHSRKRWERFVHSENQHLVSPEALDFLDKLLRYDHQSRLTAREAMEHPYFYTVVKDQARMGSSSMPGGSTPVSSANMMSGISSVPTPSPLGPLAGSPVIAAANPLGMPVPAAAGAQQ
T1 sequence (P67870 whole entry partner): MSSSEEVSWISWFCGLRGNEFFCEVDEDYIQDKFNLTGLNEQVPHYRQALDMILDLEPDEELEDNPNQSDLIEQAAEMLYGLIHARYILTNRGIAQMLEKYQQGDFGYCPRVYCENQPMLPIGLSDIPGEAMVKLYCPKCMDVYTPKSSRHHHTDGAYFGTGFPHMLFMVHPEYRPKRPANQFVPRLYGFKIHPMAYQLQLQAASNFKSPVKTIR

IC50 [5]: 0.092 µM
SMILES: Clc1cccc(Nc2c3ccncc3nc3c2nc2cnccn23)c1 [Compound 1, N-(3-chlorophenyl)pyrazino[2′,1′:2,3]imidazo[4,5-b][1,7]naphthyridin-11-amine]
IC50 [1]: 1.4 µM
IC50 [2]: 6.3 µM
IC50 [3]: 2.8 µM
IC50 [4]: 1.1 µM
IC50 [6]: 3.2 µM
IC50 [7]: 5 µM
IC50 [8]: 1.9 µM
IC50 [9]: 2.9 µM
